Here are results for twelve compounds from ChEMBL document CHEMBL1121538, “Nucleosides. 116. 1-(beta-D-Xylofuranosyl)-5-fluorocytosines with a leaving group on the 3' position. Potential double-barreled masked precursors of anticancer nucleosides” (1980).

What all share (type): functional
Holding throughout (conditions): read-out: ID50 (the source's name)

Assay [1] has as its system L5178Y. Put plainly: The compound was tested for anticancer activity against L5178Y (sensitive) cell lines of mouse leukemia.
The subject of assay [2] is L5178Y. Kind of assay: The compound was tested for anticancer activity against L5178Y ([…] resistant) cell lines of mouse leukemia.
Assay [3] concerns P815. Put plainly: The compound was tested for anticancer activity against P815 (sensitive) cell lines of mouse leukemia.
The subject of assay [4] is P815. Put plainly: The compound was tested for anticancer activity against P815([…] resistant) cell lines of mouse leukemia.

Values after ≈ are worked out from the molar mass of the structure shown.

Consider `Nc1ccn(C2OC(CO)C(Br)C2O)c(=O)n1` (stereo not drawn), for which the IC50 is 0.03 µg/mL (≈ 0.098 µM) in the assay on L5178Y [1], greater than 100 µg/mL in the assay on L5178Y [2], 0.05 µg/mL (≈ 0.163 µM) in the assay on P815 [3] and greater than 100 µg/mL in the assay on P815 [4].
For `Nc1nc(=O)n(C2OC(CO)C(Br)C2O)cc1F` (stereo not drawn), the IC50 in the assay on L5178Y [1] was found to be 0.06 µg/mL (≈ 0.185 µM); in the assay on L5178Y [2], 2.6 µg/mL (≈ 8.02 µM); in the assay on P815 [3] it was 0.2 µg/mL (≈ 0.617 µM); in the assay with P815 [4], 5 µg/mL (≈ 15.4 µM).
As for `Nc1nc(=O)n(C2OC(CO)C(Cl)C2O)cc1F` (stereo not drawn), the IC50 with L5178Y [1] was 1 µg/mL (≈ 3.58 µM); with L5178Y [2], 71 µg/mL (≈ 254 µM); in the assay with P815 [3], 0.7 µg/mL (≈ 2.5 µM); in the assay on P815 [4], greater than 30 µg/mL.
Turning to `Nc1ccn(C2OC(CO)C(Cl)C2O)c(=O)n1` (stereo not drawn), the IC50 is 2 µg/mL (≈ 7.64 µM) in the assay with L5178Y [1], greater than 100 µg/mL with L5178Y [2], 0.8 µg/mL (≈ 3.06 µM) in the assay on P815 [3] and greater than 100 µg/mL with P815 [4].
As to `Nc1ccn(C2OC(CO)C(I)C2O)c(=O)n1` (stereo not drawn), the IC50 in the assay on L5178Y [1] was 0.1 µg/mL (≈ 0.283 µM); in the assay on L5178Y [2], greater than 100 µg/mL; in the assay with P815 [3] it was 0.3 µg/mL (≈ 0.85 µM); with P815 [4], greater than 100 µg/mL.
Take `Nc1ccn([C@@H]2O[C@H](CO)[C@H](F)[C@H]2O)c(=O)n1`: the IC50 was 37 µg/mL (≈ 151 µM) in the assay with L5178Y [1], greater than 100 µg/mL with L5178Y [2], 21 µg/mL (≈ 85.6 µM) in the assay on P815 [3] and greater than 100 µg/mL with P815 [4].
`CS(=O)(=O)O[C@@H]1[C@@H](O)[C@H](n2ccc(N)nc2=O)O[C@@H]1CO`: the IC50 is 0.07 µg/mL (≈ 0.218 µM) with L5178Y [1], greater than 100 µg/mL in the assay with L5178Y [2], 0.03 µg/mL (≈ 0.0934 µM) in the assay with P815 [3] and 22 µg/mL (≈ 68.5 µM) in the assay with P815 [4].
As to `Cc1ccc(S(=O)(=O)O[C@@H]2[C@@H](O)[C@H](n3cc(F)c(N)nc3=O)O[C@@H]2CO)cc1`, the IC50 in the assay with L5178Y [1] is 0.06 µg/mL (≈ 0.144 µM); with L5178Y [2], 8 µg/mL (≈ 19.3 µM); in the assay with P815 [3] it was 0.02 µg/mL (≈ 0.0481 µM); in the assay on P815 [4], 3.9 µg/mL (≈ 9.39 µM).
As for `Cc1ccc(S(=O)(=O)O[C@@H]2[C@@H](O)[C@H](n3ccc(N)nc3=O)O[C@@H]2CO)cc1`, the IC50 with L5178Y [1] is 0.08 µg/mL (≈ 0.201 µM); in the assay on L5178Y [2], greater than 100 µg/mL; with P815 [3] it was 0.06 µg/mL (≈ 0.151 µM); in the assay with P815 [4], greater than 30 µg/mL.
On to `CS(=O)(=O)O[C@@H]1[C@@H](O)[C@H](n2cc(F)c(N)nc2=O)O[C@@H]1CO`, for which the IC50 in the assay on L5178Y [1] amounted to 0.05 µg/mL (≈ 0.147 µM); in the assay on L5178Y [2], 5.3 µg/mL (≈ 15.6 µM); with P815 [3] it was 0.02 µg/mL (≈ 0.0589 µM); in the assay on P815 [4], 6 µg/mL (≈ 17.7 µM).
Consider `Nc1nc(=O)n(C2OC(CO)C(I)C2O)cc1F` (stereo not drawn), for which the IC50 in the assay with L5178Y [1] was determined as 0.08 µg/mL (≈ 0.216 µM); in the assay on L5178Y [2], 10 µg/mL (≈ 26.9 µM); in the assay on P815 [3] it was 0.1 µg/mL (≈ 0.269 µM); in the assay with P815 [4] it was 8 µg/mL (≈ 21.6 µM).
`Nc1ccn([C@@H]2O[C@H](CO)[C@@H](O)[C@@H]2O)c(=O)n1` [CYTARABINE]: the IC50 in the assay with L5178Y [1] was found to be 20 µg/mL (≈ 82.2 µM); with L5178Y [2], 79 µg/mL (≈ 325 µM); in the assay on P815 [3] it was 10 µg/mL (≈ 41.1 µM); in the assay with P815 [4], 40 µg/mL (≈ 164 µM).
